Laboratory results taken from the supplement of paper PMC8612539.
≈ marks a conversion by molar mass, not a printed value.

Legend:
Enterococcus spp. = experiment: minimum inhibitory concentration (MIC)
Protocol: (§1)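 Broth microdilution MIC (Sensititre BOPO7F bovine plate, CLSI methods) of 19 antimicrobials against field isolates of P. multocida, M. haemolytica, H. somni (deep nasopharyngeal swabs) and E. coli, Enterococcus spp. (rectal swabs) from weaned dairy heifers. Incubation 16-24 h at 35 C. MIC is the lowest concentration preventing visible growth. Values with <= or > lie at the tested range limits. Trimethoprim-sulfamethoxazole is given as the trimethoprim component of a 1:19 mixture.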

Mannheimia haemolytica = experiment: minimum inhibitory concentration (MIC)
Protocol: as §1

CCCN1C[C@H](C)[C@@H](O)[C@](C)(O)[C@@H](CC)OC(=O)[C@H](C)[C@@H](O[C@H]2C[C@@](C)(OC)[C@@H](O)[C@H](C)O2)[C@H](C)[C@@H](O[C@@H]2O[C@H](C)C[C@H](N(C)C)[C@H]2O)[C@](C)(O)C[C@H]1C [Gamithromycin]
Conditions | minimum inhibitory concentration [mg/L]
Enterococcus spp., isolate (source animal id): 2 | ≤ 1
Enterococcus spp., isolate (source animal id): 35 | > 8
Enterococcus spp., isolate (source animal id): 42 | ≤ 1
Enterococcus spp., isolate (source animal id): 44 | 2 (≈ 2.57 µM)
Enterococcus spp., isolate (source animal id): 79 | 2 (≈ 2.57 µM)
Enterococcus spp., isolate (source animal id): 88 | ≤ 1
Enterococcus spp., isolate (source animal id): 91 | ≤ 1
Enterococcus spp., isolate (source animal id): 92 | 2 (≈ 2.57 µM)
Enterococcus spp., isolate (source animal id): 111 | ≤ 1
Enterococcus spp., isolate (source animal id): 122 | > 8
Enterococcus spp., isolate (source animal id): 123 | ≤ 1
Enterococcus spp., isolate (source animal id): 133 | ≤ 1
Enterococcus spp., isolate (source animal id): 158 | > 8
Enterococcus spp., isolate (source animal id): 168 | ≤ 1
Enterococcus spp., isolate (source animal id): 169 | ≤ 1
Enterococcus spp., isolate (source animal id): 171 | ≤ 1
Enterococcus spp., isolate (source animal id): 175 | > 8
Enterococcus spp., isolate (source animal id): 177 | ≤ 1
Enterococcus spp., isolate (source animal id): 181 | ≤ 1
Enterococcus spp., isolate (source animal id): 182 | ≤ 1
Enterococcus spp., isolate (source animal id): 183 | 2 (≈ 2.57 µM)
Enterococcus spp., isolate (source animal id): 187 | ≤ 1
Enterococcus spp., isolate (source animal id): 190 | ≤ 1
Enterococcus spp., isolate (source animal id): 194 | ≤ 1
Enterococcus spp., isolate (source animal id): 195 | ≤ 1
Enterococcus spp., isolate (source animal id): 197 | ≤ 1
Enterococcus spp., isolate (source animal id): 211 | ≤ 1
Enterococcus spp., isolate (source animal id): 214 | 4 (≈ 5.15 µM)
Enterococcus spp., isolate (source animal id): 222 | ≤ 1
Enterococcus spp., isolate (source animal id): 223 | ≤ 1
Enterococcus spp., isolate (source animal id): 228 | 8 (≈ 10.3 µM)
Enterococcus spp., isolate (source animal id): 230 | 8 (≈ 10.3 µM)
Enterococcus spp., isolate (source animal id): 235 | > 8
Enterococcus spp., isolate (source animal id): 236 | ≤ 1
Enterococcus spp., isolate (source animal id): 239 | 4 (≈ 5.15 µM)
Enterococcus spp., isolate (source animal id): 241 | > 8
Enterococcus spp., isolate (source animal id): 244 | ≤ 1
Enterococcus spp., isolate (source animal id): 246 | ≤ 1
Enterococcus spp., isolate (source animal id): 247 | > 8
Enterococcus spp., isolate (source animal id): 250 | ≤ 1
Enterococcus spp., isolate (source animal id): 252 | > 8
Enterococcus spp., isolate (source animal id): 268 | > 8
Enterococcus spp., isolate (source animal id): 282 | ≤ 1
Enterococcus spp., isolate (source animal id): 285 | > 8
Enterococcus spp., isolate (source animal id): 289 | ≤ 1
Enterococcus spp., isolate (source animal id): 290 | ≤ 1
Enterococcus spp., isolate (source animal id): 296 | ≤ 1
Enterococcus spp., isolate (source animal id): 298 | ≤ 1
Enterococcus spp., isolate (source animal id): 301 | ≤ 1
Enterococcus spp., isolate (source animal id): 310 | > 8
Enterococcus spp., isolate (source animal id): 320 | ≤ 1
Enterococcus spp., isolate (source animal id): 331 | ≤ 1
Enterococcus spp., isolate (source animal id): 333 | ≤ 1
Enterococcus spp., isolate (source animal id): 341 | > 8
Mannheimia haemolytica, isolate (source animal id): 8 | ≤ 1
Mannheimia haemolytica, isolate (source animal id): 13 | ≤ 1
Mannheimia haemolytica, isolate (source animal id): 18 | ≤ 1
Mannheimia haemolytica, isolate (source animal id): 21 | ≤ 1
Mannheimia haemolytica, isolate (source animal id): 25 | 4 (≈ 5.15 µM)
Mannheimia haemolytica, isolate (source animal id): 27 | 4 (≈ 5.15 µM)
Mannheimia haemolytica, isolate (source animal id): 28 | 2 (≈ 2.57 µM)
Mannheimia haemolytica, isolate (source animal id): 30 | ≤ 1
Mannheimia haemolytica, isolate (source animal id): 31 | 2 (≈ 2.57 µM)
Mannheimia haemolytica, isolate (source animal id): 32 | ≤ 1
Mannheimia haemolytica, isolate (source animal id): 34 | ≤ 1
Mannheimia haemolytica, isolate (source animal id): 36 | 4 (≈ 5.15 µM)
Mannheimia haemolytica, isolate (source animal id): 37 | 4 (≈ 5.15 µM)
Mannheimia haemolytica, isolate (source animal id): 40 | ≤ 1
Mannheimia haemolytica, isolate (source animal id): 41 | ≤ 1
Mannheimia haemolytica, isolate (source animal id): 43 | ≤ 1
Mannheimia haemolytica, isolate (source animal id): 46 | 4 (≈ 5.15 µM)
Mannheimia haemolytica, isolate (source animal id): 49 | 2 (≈ 2.57 µM)
Mannheimia haemolytica, isolate (source animal id): 50 | 4 (≈ 5.15 µM)
Mannheimia haemolytica, isolate (source animal id): 51 | ≤ 1
Mannheimia haemolytica, isolate (source animal id): 52 | ≤ 1
Mannheimia haemolytica, isolate (source animal id): 53 | ≤ 1
Mannheimia haemolytica, isolate (source animal id): 55 | ≤ 1
